From the NIST ThermoML archive (doi:10.1021/je100940w)
Numbers after ± are expanded uncertainties.

Assays:
[1] = refractive index (Na D-line) (dimensionless); details: 298.15 K; 101.33 kPa; Liquid; Standard Abbe refractometry
[2] = 298.15 K; 101.33 kPa; Liquid; Vibrating tube method

| refractive index [1] | Structure (SMILES) | mass density [2] |
| --- | --- | --- |
| 1.3949 ± 0.0005 | CCC(C)O (stereo not given) [butan-2-ol] | 802.35 ± 0.24 kg/m3 |
| 1.3332 ± 0.0005 | O [water] |  |

| Structure (SMILES) | refractive index [1] | mass density [2] |
| --- | --- | --- |
| CC(=O)CC(C)C [4-methylpentan-2-one] | 1.3936 ± 0.0005 | 795.94 ± 0.14 kg/m3 |
